Reference: ChEMBL document CHEMBL1201862, “PubChem BioAssay data set” (2004)
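Five concentrations, 48 hours, 96-well plates. Here, GI50 denotes the concentration required for 50% inhibition of growth.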 The source made the active and inactive calls. Cut-off read from the data, not from the text of the source: active = GI50 up to about 1.1 µM and inactive = higher.

Assays:
Assay in all cases: growth of human tumour cells (NCI), 48 h
XF498 = system: XF498
KM-20L2 = system: KM-20L2
RXF 631 = system: RXF 631
DMS-114 = system: DMS-114
HOP-18 = system: HOP-18
LXFL 529 = system: LXFL 529
M19-MEL = system: M19-MEL
DMS-273 = system: DMS-273
DLD-1 = system: DLD-1

Measured: GI50

CSC(C1c2ccccc2N(C)C2=NC(=O)N(C)C(=O)C21Cl)S(=O)(=O)c1ccc(C)cc1 (stereo not drawn)
inactive: XF498 > 100 µM | KM-20L2 > 100 µM | RXF 631 39.6 µM | DMS-114 49.1 µM | HOP-18 83.2 µM | LXFL 529 22.2 µM | M19-MEL 33.4 µM | DMS-273 27.3 µM | DLD-1 40.9 µM

COc1cccc(C(=O)C2C(=O)N(C)CCc3ccccc32)c1OC (stereo not drawn)
inactive: XF498 > 100 µM | KM-20L2 > 100 µM | RXF 631 > 100 µM | DMS-114 > 100 µM | HOP-18 > 100 µM | LXFL 529 > 100 µM | M19-MEL > 100 µM | DMS-273 > 100 µM | DLD-1 > 100 µM

C(=C1\CCC/C(=C/c2ccccc2)C1=NNc1ccccc1)/c1ccccc1
inactive: KM-20L2 > 100 µM | RXF 631 > 100 µM | DMS-114 > 100 µM | HOP-18 > 100 µM | LXFL 529 > 100 µM | M19-MEL > 100 µM | DMS-273 > 100 µM | DLD-1 > 100 µM

CC(=O)OC1(C)C(=O)OC1(C)C(C)=O (stereo not drawn)
inactive: KM-20L2 > 100 µM | RXF 631 > 100 µM | DMS-114 > 100 µM | HOP-18 > 100 µM | LXFL 529 > 100 µM | M19-MEL > 100 µM | DMS-273 > 100 µM | DLD-1 > 100 µM

CCCCCCCCCCCc1nnc(N)o1
inactive: XF498 > 100 µM | KM-20L2 > 100 µM | RXF 631 82 µM | LXFL 529 > 100 µM | M19-MEL > 100 µM | DMS-273 > 100 µM | DLD-1 > 100 µM

CC(=O)OCC1OC(n2cccnc2=O)C(OC(C)=O)C1OC(C)=O (stereo not drawn)
inactive: XF498 > 100 µM | KM-20L2 > 100 µM | RXF 631 > 100 µM | DMS-114 > 100 µM | HOP-18 > 100 µM | LXFL 529 > 100 µM | M19-MEL > 100 µM | DMS-273 > 100 µM | DLD-1 > 100 µM

Cc1ccc2nc3c(Cl)cc(=O)cc-3sc2c1
inactive: KM-20L2 > 10 µM | RXF 631 30.8 µM | DMS-114 20.4 µM | HOP-18 2.96 µM | LXFL 529 18.7 µM | M19-MEL 19.7 µM | DMS-273 19.7 µM | DLD-1 > 10 µM

C/C(CC(=O)CCCC(=O)Nc1ccc(Cl)cc1Cl)=N/NC(=O)CC#N
inactive: XF498 > 100 µM | KM-20L2 > 100 µM | RXF 631 > 100 µM | DMS-114 > 100 µM | HOP-18 > 100 µM | LXFL 529 > 100 µM | M19-MEL > 100 µM | DMS-273 > 100 µM | DLD-1 > 100 µM

CCCCC1NC=Nc2c1ccc1c2[nH]c2ccccc21 (stereo not drawn)
inactive: XF498 1.89 µM | RXF 631 2.6 µM | DMS-114 1.76 µM | HOP-18 10.2 µM | LXFL 529 1.88 µM | M19-MEL 3.26 µM | DMS-273 1.7 µM | DLD-1 2.47 µM

COc1cc(C(=O)C/C(CCC(=O)Nc2ccccc2[N+](=O)[O-])=N\NC(=O)C(N)=O)ccc1O
inactive: KM-20L2 > 100 µM | RXF 631 > 100 µM | DMS-114 > 100 µM | HOP-18 > 100 µM | LXFL 529 > 100 µM | M19-MEL > 100 µM | DMS-273 > 100 µM | DLD-1 > 100 µM
